Laboratory results published in ChEMBL document CHEMBL5096239, “Two Binding Sites of SARS-CoV-2 Macrodomain 3 Probed by Oxaprozin and Meclomen” (J Med Chem, 2022).
pKd, pKi: −log10 of the molar value. Active and inactive are the calls of the source. No cut-off for these calls is given here.

Key:
[1] = target: Replicase polyprotein 1ab (Severe acute respiratory syndrome coronavirus 2) (UniProt P0DTD1); experiment: Binding affinity to 15N-labelled His6-tagged SARS-CoV-2 Mac3 (551 to 675 residues) expressed in Escherichia coli Rosetta assessed as chemical shift perturbations at binding site I (M630, Y634, V635, T636, and S660 residues) at ligand to protein molar ratio of 4:1 by NMR HSQC spectral analysis
[2] = target: T1, Replicase polyprotein 1ab (Severe acute respiratory syndrome coronavirus 2, UniProt P0DTD1); experiment: Displacement of carboxyfluorescein-labelled p53-(dG)14 from SARS-CoV-2 Mac3 by fluorescence polarization analysis
[3] = target: T1, Replicase polyprotein 1ab; experiment: Binding affinity to 15N-labelled His6-tagged SARS-CoV-2 Mac3 (551 to 675 residues) expressed in Escherichia coli Rosetta assessed as chemical shift perturbations by NMR HSQC spectral analysis
Replicase polyprotein 1a = Replicase polyprotein 1a (Severe acute respiratory syndrome-related coronavirus, UniProt P0C6U8); experiment: Binding affinity to 15N-labelled His6-tagged SARS-CoV Mac3 (527 to 652 residue) expressed in Escherichia coli Rosetta assessed as chemical shift perturbations by NMR HSQC spectral analysis
[4] = target: Replicase polyprotein 1a (Severe acute respiratory syndrome-related coronavirus) (UniProt P0C6U8); experiment: Binding affinity to 15N-labelled His6-tagged SARS-CoV Mac3 (527 to 652 residue) expressed in Escherichia coli Rosetta assessed as chemical shift perturbations at binding site 1 (1556, T559, M606, T612, S636, and S637 residues) by NMR HSQC spectral analysis
[5] = target: T1, Replicase polyprotein 1ab; experiment: Displacement of carboxyfluorescein-labelled bbc3-(dG)14 from SARS-CoV-2 Mac3 by fluorescence polarization analysis
[6] = target: Replicase polyprotein 1ab (Severe acute respiratory syndrome coronavirus 2) (UniProt P0DTD1); experiment: Binding affinity to 15N-labelled His6-tagged SARS-CoV-2 Mac3 (551 to 675 residues) expressed in Escherichia coli Rosetta assessed as chemical shift perturbations at binding site II (Q594, E595, S609, and M630 residues) at ligand to protein molar ratio of 4:1 by NMR HSQC spectral analysis
[7] = target: Replicase polyprotein 1a (Severe acute respiratory syndrome-related coronavirus) (UniProt P0C6U8); experiment: Binding affinity to 15N-labelled His6-tagged SARS-CoV Mac3 (527 to 652 residue) expressed in Escherichia coli Rosetta assessed as chemical shift perturbations at binding site 1 (C550, V553, 1556, and M606 residues) by NMR HSQC spectral analysis

In the case of `Cc1ccc(Cl)c(Nc2ccccc2C(=O)O)c1Cl` [MECLOFENAMIC ACID], the Activity [1] was “Active”, the pKi [2] was 3.70 and the pKd [3] was 3.05. The pKd (Replicase polyprotein 1a) was 3.66, the Activity [4] was “Active” and the pKi [5] was 4.30.

With `O=C(O)CCc1nc(-c2ccccc2)c(-c2ccccc2)o1` [OXAPROZIN] the pKi [2] was 3.05, the pKd [3] was 2.92 and the pKd (Replicase polyprotein 1a) was 3.00. For the same molecule, the pKi [5] was 3.40, the Activity [6] was “Active” and the Activity [7] was “Active”.
